Assay results taken from patent publication US20170087165A1, “METHODS FOR REDUCING THE OCCURRENCE OF PRETERM DELIVERY AND OTHER PREGNANCY-RELATED CONDITIONS” (Lumara Health IP, Ltd., priority 2009, published 2017).
“And” between values parts separate entries of the source, which are not always exact repeats. Equal values may be shown once.

Columns and labels:
[1] = tested on: pregnant women having a documented history of spontaneous preterm delivery; details: cited from earlier work
[2] = Analysis of the Example 1 trial by smoking status during pregnancy; assay type: in vivo, human; details: women who smoked during pregnancy; 95% CI 0.0830, 0.5297
Procedure: (§1) In a double-blind, placebo-controlled trial, 463 pregnant women having a documented history of spontaneous preterm delivery received weekly injections of 250 mg […] caproate (17-HPC) or an inert castor oil placebo beginning at 16 to 20weeks of gestation and continuing until delivery or 36 weeks of gestation, whichever occurred first. […] A 2:1 ratio was used for the assignment of women to the 17-HPC or placebo group, since those in the placebo group would be subjected to painful injections on a weekly basis with no possibility of direct benefit. Thus, there were 310 women in the 17-HPC group and 153 women in the placebo group. The baseline characteristics of the women in the two groups were similar in terms of the mean duration of gestation of the qualifying delivery, the mean duration of gestation at the time of randomization, race or ethnic group, marital status, body mass index (BMI), educational level, smoking status, and substance use during pregnancy. The women in the placebo group had had more previous preterm deliveries (mean of 1.6 vs. 1.4 in the 17-HPC group). 91.5% of the study participants were compliant with all of their injections, noncompliance being defined as a gap of 10 days or more between any two injections, and there was no difference in the rate of compliance between the placebo group and the 17-HPC group. Preterm delivery was defined as delivery at less than 37 completed weeks (259 days) of gestation, calculated on the basis of the date of the last menstrual period and ultrasonography results.
(§2) In the clinical trial described in Example 1, 22.6% ([…]) of subjects in the 17-HPC group and 19.6% (30/153) of subjects in the placebo group smoked during pregnancy. […] Thus, it was apparent in the data that smoking increased the risk f or preterm delivery, measured either as delivery prior to 37 weeks of gestation.

[3] = tested on: women who smoked during pregnancy; assay: as above; assay type: in vivo, human
Procedure: as §1, §2

[4] = tested on: children of the mothers who participated in the trial; details: cited from earlier work

CCCCCC(=O)O[C@]1(C(C)=O)CC[C@H]2[C@@H]3CCC4=CC(=O)CC[C@]4(C)[C@H]3CC[C@@]21C [17-HPC, 17alpha-hydroxyprogesterone caproate]
incidence of preterm delivery at less than 37 weeks of gestation ([1]; 250 mg weekly injection from 16-20 weeks of gestation until delivery or 36 weeks, 111/306, placebo 54.9%): 36.3%
incidence of delivery at less than 32 weeks ([1]; 250 mg weekly, 35/306, P=0.02): 11.4%
incidence of delivery at less than 35 weeks of gestation ([1]; 250 mg weekly, 63/306, placebo 30.7%, P=0.02): 20.6%
incidence of necrotizing enterocolitis ([1]; infants of treated women, 0/305, placebo 2.6%, P=0.01): 0%
incidence of intraventricular hemorrhage of any grade ([1]; infants of treated women, 4/305, placebo 5.2%): 1.3%
incidence of birth weight of less than 1500 g ([1]; infants of treated women, 26/301, placebo 13.9%, P=0.08, non-significant): 8.6%
incidence of need for supplemental oxygen ([1]; infants of treated women, 45/303, placebo 23.8%): 14.9%
incidence of birth weight of less than 2500 g ([1]; infants of treated women, 82/301, placebo 41.1%, P=0.003): 27.2%
rate of intraventricular hemorrhage of grades 3 to 4 ([1]; versus placebo group): no significant difference between groups
rates of infant death, transient tachypnea in the newborn, distress syndrome, bronchopulmonary dysplasia, need for ventilatory support, retinopathy of prematurity, and patent ductus arteriosus ([1]; versus placebo group): slightly but not significantly lower
women needed to be treated to prevent one delivery before 32 weeks of gestation ([1]; women with similar risk level): 12 women
odds ratio of preterm delivery (<37 weeks) 17-HPC vs placebo [2]: 0.21 and 0.2097
proportion of deliveries at less than 37 weeks of gestation, subjects who did not smoke during pregnancy ([3]; not smoking during pregnancy, 92/240, placebo 51.2% (63/123)): 38.3%
proportion of deliveries at less than 37 weeks of gestation, subjects who smoked during pregnancy ([3]; smoking during pregnancy, 23/70, placebo 70% (21/30)): 32.9%
health status or physical examination of the children ([4]; mean age at follow up 48 months, 194 children in 17-HPC group vs 84 placebo): No significant differences
Ages and Stages Questionnaire (development in five areas) ([4]; mean age at follow up 48 months, versus placebo): no difference
safety for the fetus ([4]; weekly intramuscular injection to the mother during second and third trimesters): appears to be safe for the fetus
